Laboratory results: article PMC12562321 (2025)

What was measured:
[1] = system: OA63 (DNA, aptamer) CCGGGTGGGTGGGTGTGGTCTTGTATTTGATTATGTCTGTCGGCGCTTTTTGGCCCCTTCGTT; assay: electrochemical aptasensor (DPV); settings: 150 mM NaCl, 2 mM Mg2+; 50 mM Tris pH 7.5, 25 °C, 30 min; capture probe P63_8; 5-200 nM OA
[2] = system: OA31 (DNA, aptamer) CCACCAACGAGAGTCAGAAAACCATGGTGGG; assay: electrochemical aptasensor (DPV); settings: 150 mM NaCl, 2 mM Mg2+, capture probe P31_14

binding [1] | binding ([2]; 50 mM Tris pH 7.5, 4 °C, 5 min, 5-200 nM OA) | binding ([2]; 50 mM Tris pH 7.5, sensitivity 2 times lower than for OA) | Structure (SMILES)
yes | yes | – | C=C1[C@@H](O)[C@@H]2O[C@]3(CC[C@H](/C=C/[C@@H](C)[C@@H]4CC(C)=C[C@@]5(O[C@H](C[C@@](C)(O)C(=O)O)CC[C@H]5O)O4)O3)CC[C@H]2O[C@@H]1[C@@H](O)C[C@H](C)[C@H]1O[C@@]2(CCCCO2)CC[C@H]1C
– | – | yes | C=C1[C@@H](O)[C@@H]2O[C@]3(CC[C@H](/C=C/[C@@H](C)[C@@H]4CC(C)=C[C@@]5(O[C@H](C[C@@](C)(O)C(=O)O)CC[C@H]5O)O4)O3)CC[C@H]2O[C@@H]1[C@@H](O)C[C@H](C)[C@H]1O[C@@]2(CC[C@H]1C)OCCC[C@H]2C
